Assay results taken from US20140154717A1, “METHOD FOR DETECTING CANCER CELL USING FLUORESCENTLY LABELED L-GLUCOSE DERIVATIVE, AND CANCER CELL-IMAGING AGENT COMPRISING FLUORESCENTLY LABELED L-GLUCOSE DERIVATIVE” (priority 2011, published 2014).
“Also recorded” adds a separate entry of the source.

Key:
[1] = system: tumor cells (C6 glioma); assay: In vivo fluorescent imaging using C6 tumor model mice (rat glioma C6 cells transplanted subcutaneously in nude mice); parameters: species or system mouse
Protocol: C6 cells were prepared according to an ordinary method so that the cell number was 2×10^7 cells/mL.
C6 cells were seeded on a 10 cm petri dish, allowed to stand still in a CO2 incubator, and cultured at 37° C. The culture medium was exchanged once every two days.
1 g/L glucose-containing Dulbecco's modified Eagle's Medium (DMEM) (Nacalai No. 08456-65), to which Fetal Bovine Serum (Equitech-Bio SFBM) was added so that the final concentration was 10% and penicillin-streptomycin (Nacalai No. 26253-84) was added so that the final concentration was 1%, was used.
5 to 6-week old athymic nude mice (BALB/cAJcl-nu/nu) were transplanted with 50 μL of a cell suspension adjusted to 2×10^7 cells/mL subcutaneously around the root of right hind paw, under isoflurane anesthesia. The transplanted tumor cells were observed until growing to about 200 to 300 mm^3, and used in vivo fluorescent imaging.
C6 tumor model mice were allowed to stand still in an in vivo fluorescence imaging apparatus IVIS (registered trademark) Kinetics (Caliper Life sciences) under isoflurane anesthesia and autofluorescence of the mouse skin was measured, and subsequently, 400 nmol (100 μL) of 2-NBDLG or 2-NBDG dissolved in physiological saline was administered from the tail vein over a period of 30 seconds, and measurement of the fluorescence imaging was started again from one minute after starting administration. The in vivo fluorescence imaging was measured at an excitation wavelength of 465 nm using a GFP filter (transmittable fluorescence wavelength: 515-575 nm). The measurement was conducted for 45 minutes, and images were taken every one minute during the initial 20 minute and every 5 minutes from 20 to 45 minutes, obtaining 25 images in total. The accumulated values (fluorescence value) of 2-NBDLG and 2-NBDG in the interested area were obtained by subtracting the autofluorescence images from the 25 images taken after administration of 2-NBDLG or 2-NBDG.
A vial of 0.5 mg of 2-NBDLG or 2-NBDG was dissolved in 400 μL of physiological saline directly before the experiment, to prepare a solution having a final concentration of 400 nmol/100 μL.

[2] = system: mouse insulinoma cells (MIN6); assay: Uptake into MIN6 cells with or without inhibitors, fluorescence microplate reader (Flex Station); type: cell-based; details: 200 μM, 5 minutes
Protocol: A difference in the uptake of 2-NBDLG (200 μM) and 2-NBDG (200 μM) into mouse insulinoma cells (MIN6) each applied for 5 minutes was analyzed quantitatively by a fluorescence microplate reader Flex Station (manufactured by Molecular Devices Corporation) in the condition whether or not various inhibitors are present. The well used for measurement was a 96-well clear bottomed well plate μ CLEAR-PLATE (Greiner bio-one, BLACK, 96 well, #655090) having longitudinally […] to 12 twelve columns, and MIN6 cell suspension prepared at a proportion of 6×10^5 cells/mL was seeded uniformly into wells from line B to line G at the third column and the fifth column each in an amount of 15 μL. For medium exchange, the half quantity was exchanged every two days in 0 to 4 DIV (days in vitro), and from 5 DIV or later, exchanged every day, and on days 10 to 13 (10 to 13 DIV), the cells were subjected to an experiment. Line A and line H were used as a control for checking correct washout, without seeding cells. In the fourth column, cells were not present, and wells in this column were used as a blank containing only Krebs Ringer buffer solution (KRB, containing 0.1 mM gap junction inhibitor carbenoxolone and 5.6 mM glucose). Evaluation was done in a way that 2-NBDLG or 2-NBDG was charged in each tube of a 8-strip PCR tube, and sucked using a 8-channel pipette and dropped simultaneously into wells. In this way, administration to wells for 2-NBDLG and to wells for 2-NBDG can be done simultaneously, making reliable evaluation possible. As described above, cells are present in 12 wells in the third and the fifth two columns, and these were divide into 4 groups each having 3 wells according to a difference either 2-NBDLG or 2-NBDG and whether an inhibitor is present or absent. Specifically, when checking the effect by the presence or absence of a GLUT inhibitor Cytochalasin B (10 μM) on the uptake of 2-NBDLG (200 μM) and 2-NBDG (200 μM), first, in wells, which are planned to be measured in the presence of Cytochalasin B, Cytochalasin B was added 5 minutes prior to the administration of the fluorescently labeled glucose derivative. Before administration of a fluorescently labeled glucose derivative, the autofluorescence was measured in each well. The measurement was done with Flex Station in Well Scan Mode and in the Bottom Read position at Ex 470 nm, Em 540 nm, Cut off 495 nm, Averaging 3, and Photomultiplier sensitivity: high. In Well Scan Mode of the fluorescence microplate reader Flex Station, one well was divided into nine observation areas and these are measured independently. The presence of approximately 5000 cells in each of 9-divided areas was separately confirmed by Z section measurement of a realtime deconvolution microscope. 2-NBDG and 2-NBDLG were administered with or without Cytochalasin B (37° C., 5 minutes), and after cessation of administration, an operation of adding 250 μL of a KRB solution containing no fluorescently labeled glucose into 50 μL of a solution in a well was repeated 7 times while measuring with a stopwatch, thereby performing washout until the fluorescence intensities of wells in line A and line H set as a control group became equal to the fluorescence intensity of the blank well containing no cell. This process required 7 minutes, and even if cells having broken plasma membrane condition are brought into contact with 2-NBDG and 2-NBDLG, and even if these compounds are once taken up into the cell, these compounds are already eliminated out of the cell and are washed away in measurement, therefore, contribution to an increase in the fluorescence intensity in the whole observation area was judged to be in an ignorable level. This was supported by a separate pharmacological inhibition experiment in which the increase in the fluorescence intensity nearly disappears in the presence of an inhibitor. The above-described method was carried out similarly in the case of other inhibitors. […]

[3] = system: mouse insulinoma cells (MIN6); assay: Confocal imaging of MIN6 tumor cell cluster using 2-NBDLG+2-TRLG mixture; type: cell-based
Protocol: A 0.1 mg 2-TRLG vial was transferred into a desiccator and the temperature thereof was returned to room temperature. […] Specifically, 6.5 mL of the above-described 2-NBDLG solution was prepared beforehand and stirred vigorously. Then, 40 μL of DMSO was added to a 2-TRLG vial container using a RAININ chip (Mettler Toledo) in which adhesion to the tip wall is ignorable, and stirred with the vial container by a mixer to cause dissolution thereof. 2-TRLG adhered to the wall was collected to the bottom by spinning down, the whole quantity thereof was removed by [sequence] using the same chip, and dissolved in the 2-NBDLG solution being stirred. 2-TRLG slightly remaining in the 2-TRLG vial container was recovered using 25 μL of DMSO in the same manner as described above, and further dissolved in the 2-NBDLG solution. By the above-described method, a mixed solution of 100 μM 2-NBDLG+20 μM 2-TRLG (final concentration) was prepared with good reproducibility.
A 100 μM 2-NBDLG+20 μM 2-TRLG mixture was administered for 3 minutes in a condition completely covering the whole tumor cell cluster. The state of the solution covering the whole cell cluster was confirmed each time without fail by fluorescence images in the green and red wavelength ranges during administration and acquisition of a transmitted light image. By stopping application of the fluorescent glucose mixture and switching simultaneously to the solution to a no fluorescent glucose-containing HEPES solution, the background fluorescence became ignorable level in 1 minute.
By the method according to Example 3, image acquisition before administration of the mixture was started just after starting an experiment, and from then on, the fluorescence images in the blue, green and red wavelength ranges and a transmitted light image were acquired every 2 minutes until completion of the experiment. Regarding laser used, DAPI used for nuclear staining was excited by using 405 nm diode laser (AOTF 20%) and 2-NBDLG and 2-TRLG were excited by using 488 nm argon laser (output: 50%, AOTF 28%). The scan speed was 400 Hz.
For fluorescence detection, three fluorescence detectors were used as described below. For detection of blue fluorescence by DAPI, a photomultiplier detector (PMT)1 was used in the wavelength detection range of 415 to 500 nm (detection sensitivity: 750 V), for detection of green fluorescence by 2-NBDLG, PMT2 was used in the wavelength detection range of 500 to 580 nm (detection sensitivity: 670 V), and for detection of red fluorescence, PMT3 was used in the wavelength detection range of 580 to 740 nm (detection sensitivity: 670 V). Here, most of the fluorescence of 2-TRLG is present in the wavelength longer than 580 nm and only a small fluorescent component is present in the wavelength less than 580 nm, thus, the fluorescence intensity in the range of 500 to 580 nm of PMT2 is barely influenced by 2-TRLG. Therefore, when the amount of detection of 2-TRLG in cells increases, its effect emerges mainly as an increase in the fluorescence intensity in the range of 580 to 740 nm of PMT3. On the other hand, although 2-NBDLG has the maximal fluorescence intensity around 540 to 550 nm, it has fluorescence in the range of 580 to 740 nm as well. Therefore, when the amount of detection of 2-NBDLG within the cell increases, the fluorescence intensity in the range of 580 to 740 nm detected by PMT3 also increases in addition to an increase in the fluorescence intensity in the range of 500 to 580 nm detected by PMT2. […]

[4] = 100 μM 2-NBDLG+20 μM 2-TRLG mixture for 3 minutes

## O=[N+]([O-])c1ccc(NC2C(O)OC(CO)[C@H](O)C2O)c2nonc12 (stereo partly drawn) [2-NBDLG, 2-[N-(7-Nitrobenz-2-oxa-1,3-diazol-4-yl)amino]-2-deoxy-L-glucose]
[1]; 400 nmol i.v., temporal change over 45 minutes, same result in 6 examples
  fluorescence values at tumor-transplanted part (Tumor) versus normal tissue (BG), FIG. 3: fluorescence values at the tumor-transplanted part (blue rhombus, Tumor) are consistently larger than at normal tissue
[1]; 400 nmol/100 μL from the tail vein
  time from which accumulations at the tumor cell-transplanted part were recognized: around 5 minutes after administration
[1]; 400 nmol/100 μL from the tail vein over 30 seconds, non-fasted nude mice, fluorescence images every one minute
  accumulation at the tumor-transplanted part: intense accumulations
[1]; 400 nmol/100 μL from the tail vein, non-fasted mice
  contrast between tumor-transplanted part and normal tissue (adipocyte-rich dorsal part near neck): excellent contrast; also recorded: high contrast
[1]; 400 nmol/100 μL from the tail vein, normal tissue (fat tissue on the back, between back bones, muscle)
  uptake/accumulation in normal tissue: scarcely taken up
[2]; 37° C., Cytochalasin B (10 µM, CB)
  effect of GLUT inhibitor Cytochalasin B on uptake into MIN6 cells: did not show a significant decrease (N.S.)
[2]; 37° C., Na(−) buffer, choline substituted
  uptake into MIN6 cells in buffer containing Na+ versus no Na+ ion (SGLT): no significant difference
[2]; Phloretin (150 μM, PHT)
  effect of Phloretin on uptake into MIN6 cells: underwent inhibition of the uptake
[3]; [4]
  fluorescence at the central region of the cell cluster, 4 minutes after cessation of administration: weaken to a considerable extent
  uptake into cells just outside of the central region of the cell cluster: taking up almost no
[3]; 100 μM 2-NBDLG+20 μM 2-TRLG mixture for 3 minutes, green channel (2-NBDLG), red channel (2-TRLG)
  uptake at the central region of the cell cluster, 2 minutes after cessation of administration: Intense uptake
[3]; 100 μM 2-NBDLG+20 μM 2-TRLG mixture, after cessation of administration
  time of elimination from spherical cells on the outermost periphery of the cell cluster: ≤ 2 min
[3]; 100 μM 2-NBDLG+20 μM 2-TRLG mixture, between 2 and 4 minutes after cessation
  time of elimination from cells at the central region of the tumor cell cluster: ≤ 2 min
